The text below walks through data of patent US8440666B2, “Pyridazinone compounds and P2X7 receptor inhibitors” (Nissan Chemical Industries, Ltd., priority 2007, dated 2013).

Assay [1] addresses T1, Human P2X7 (hP2X7) receptor (Homo sapiens, UniProt Q99572).
T1 construct: myc-His (from the pcDNA3.1/myc-HisA vector); expressed in transfected cells
T1 sequence (Q99572 1-595): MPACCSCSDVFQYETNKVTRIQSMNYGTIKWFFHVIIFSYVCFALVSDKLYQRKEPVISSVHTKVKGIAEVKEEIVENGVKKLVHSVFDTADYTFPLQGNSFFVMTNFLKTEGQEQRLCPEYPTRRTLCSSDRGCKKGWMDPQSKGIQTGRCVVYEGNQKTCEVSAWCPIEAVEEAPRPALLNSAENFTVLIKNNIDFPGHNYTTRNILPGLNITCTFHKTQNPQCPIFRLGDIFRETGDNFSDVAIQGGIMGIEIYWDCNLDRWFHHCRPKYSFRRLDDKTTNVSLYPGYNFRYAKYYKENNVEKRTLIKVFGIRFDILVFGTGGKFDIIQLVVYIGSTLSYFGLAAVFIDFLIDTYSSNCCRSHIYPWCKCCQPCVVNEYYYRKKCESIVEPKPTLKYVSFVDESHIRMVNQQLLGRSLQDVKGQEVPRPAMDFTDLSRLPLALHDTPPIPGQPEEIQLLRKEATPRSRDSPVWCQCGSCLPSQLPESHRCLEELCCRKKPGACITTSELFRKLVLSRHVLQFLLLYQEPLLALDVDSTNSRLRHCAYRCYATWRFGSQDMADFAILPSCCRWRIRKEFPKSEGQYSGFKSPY
The experiment in a line: Dye assay: BzATP-induced Yo-Pro-1 uptake in HEK293 cells stably expressing hP2X7. Format: cell-based. The following applies: 90 min incubation. In short, it runs like this:
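HEK293 cells stably expressing cloned human P2X7 (595 aa) were preincubated 30 min with compound, then given 2 μM Yo-Pro-1 and 0.1 mM BzATP (final) for 90 min. Dye uptake read by fluorescence (ex 485/em 535 nm); IC50 derived from % inhibition versus log concentration.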

The subject of assay [2] is IL-1β in supernatants of peripheral blood mononuclear cells. The experiment in a line: IL-1β assay: BzATP- or ATP-induced IL-1β release from LPS-treated human peripheral blood mononuclear cells. Format: cell-based. Conditions: 2 h; IL-1β in supernatants of LPS-treated human PBMC; BzATP (1 mM) or ATP (5 mM), 120 min. As for the experimental part:
Human whole blood from healthy volunteers was diluted with equal volume of saline and peripheral blood mononuclear cells were collected by using a Limphoprep tube (Daiichi Pure Chemicals), washed with physiological saline and seeded onto a 96-well plate with a medium containing 1-10 ng/mL LPS (SIGMA). 30 minutes later, the cells were treated with varying concentrations of various compounds and incubated for 30 minutes. Then, the cells were treated with BzATP (final concentration 1 mM) or ATP (final concentration 5 mM) and incubated for 120 minutes. The cells were centrifugated to collect supernatents, and the concentration of IL-1β in supernatants were determined by IL-1β HTRF kit (CIS biointernational). The % inhibition rates were calculated and plotted against the logarithms of the concentrations to determine IC50.

The mark [3] stands for this setting: BzATP (0.1 mM)-induced Yo-Pro-1 uptake, compounds 30 min pre-treatment.
Setting [4] is: BzATP 0.1 mM, Yo-Pro-1 2 μM, 30 min pre-treatment.

For `CC(NC(=O)Cn1ncc(N[C@@H]2C[C@@H]3C[C@H]([C@H]2C)C3(C)C)c(Br)c1=O)c1ccncc1` (stereo partly drawn) [compound 39], the 50% inhibitory concentration (IC50) in assay [1] (setting [3]) came to 6.3 nM; in assay [2], 19 nM.

As for `CCN(CC)c1ccc(C(=O)Cn2ncc(N[C@@H]3C[C@@H]4C[C@H]([C@H]3C)C4(C)C)c(Br)c2=O)cc1` [compound 84], the results for the IC50 in assay [1] (setting [3]) and in assay [2] were 4.1 nM and 82 nM, respectively.

Consider `CCC(NC(=O)Cn1ncc(N[C@@H]2C[C@@H]3C[C@H]([C@H]2C)C3(C)C)c(Br)c1=O)c1ccncc1` (stereo partly drawn) [compound 171], for which the IC50 in assay [1] (setting [3]) turned out to be 4.3 nM; in assay [2], 33 nM.

In the case of `CC1C(Nc2cnn(CC(=O)NCc3ccnnc3)c(=O)c2Br)CC2CC1C2(C)C` (stereo not drawn) [compound 214], the half-maximal inhibitory concentration (IC50) in assay [1] (setting [3]) was 3.9 nM; in assay [2], 39 nM.

Regarding `COc1cnccc1CNC(=O)Cn1ncc(N[C@@H]2C[C@@H]3C[C@H]([C@H]2C)C3(C)C)c(Br)c1=O` [compound 216], the 50% inhibitory concentration (IC50) in assay [1] (setting [3]) was found to be 12 nM; in assay [2], 38 nM.

As to `C[C@@H]1[C@H]2C[C@@H](C[C@H]1Nc1cnn(CC(=O)N[C@H](C)c3ccncc3)c(=O)c1Cl)C2(C)C` [compound 230], the IC50 in assay [1] (setting [3]) stood at 2.8 nM; in assay [2], 3.1 nM.

Take `CC(NC(=O)Cn1ncc(N[C@@H]2C[C@@H]3C[C@H]([C@H]2C)C3(C)C)c(Cl)c1=O)c1ccncc1Cl` (stereo partly drawn) [compound 264]: the IC50 in assay [1] (setting [3]) was 1.4 nM; in assay [2], 3.3 nM.

As for `C[C@@H]1[C@H]2C[C@@H](C[C@H]1Nc1cnn(CC(=O)NCc3ccncc3N(C)C)c(=O)c1Cl)C2(C)C` [compound 277], the IC50 in assay [1] (setting [3]) turned out to be 3.7 nM; in assay [2], 4.3 nM.

With `O=C(Cn1ncc(NC2C3CCCC2CCC3)c(Br)c1=O)NCc1ccncc1` (stereo not drawn) [compound 325], the IC50 in assay [1] (setting [3]) was found to be 8.9 nM; in assay [2], 40 nM.

As to `CCC(NC(=O)Cn1ncc(N[C@@H]2C[C@@H]3C[C@@H](C3(C)C)[C@]2(C)O)c(Br)c1=O)c1ccncc1` (stereo partly drawn) [compound 358], the results for the IC50 in assay [1] (setting [3]) and in assay [2] were 10 nM and 38 nM, respectively.

Take `CC(NC(=O)Cn1ncc(NC2C3CCCC2CCC3)c(Cl)c1=O)c1ccncc1Cl` (stereo not drawn) [compound 378]: the concentration for half-maximal inhibition (IC50) in assay [1] (setting [3]) and in assay [2] was 1.5 nM in each case.

In the case of `Cc1cnncc1CNC(=O)Cn1ncc(N[C@@H]2C[C@@H]3C[C@H]([C@H]2C)C3(C)C)c(Cl)c1=O` [compound 432], the IC50 in assay [1] (setting [4]) was found to be 2.1 nM; in assay [2], 17 nM.

In the case of `C[C@@H]1[C@H]2C[C@@H](C[C@H]1Nc1cnn(CC(=O)NCc3ccnnc3Cl)c(=O)c1Cl)C2(C)C` [compound 433], the IC50 came out at 6.2 nM in assay [1] (setting [4]) and 51 nM in assay [2].

For `C[C@@H]1[C@H]2C[C@@H](C[C@H]1Nc1cnn(CC(=O)NCc3ccnnc3N(C)C)c(=O)c1Cl)C2(C)C` [compound 435], the IC50 in assay [1] (setting [4]) came out at 3.2 nM; in assay [2], 36 nM.

As for `C[C@@H]1[C@H]2C[C@@H](C[C@H]1Nc1cnn(CC(=O)NCc3ccncc3S(C)(=O)=O)c(=O)c1Cl)C2(C)C` [compound 442], the IC50 in assay [1] (setting [4]) came to 1.7 nM; in assay [2], 27 nM.

By IC50 is commonly meant the concentration that gives 50% inhibition.
